± gives the standard deviation of the averaged measurements.
Key:
Test in all cases: surviving fraction relative to DMSO-only wells; higher = less growth inhibition
Conditions in all cases: exposure time: 5 days
[1] = compound: CCc1cc(Nc2nccc(-c3c(-c4ccc(OC)c(C(=O)Nc5c(F)cccc5F)c4)nc4ccccn34)n2)c(OC)cc1N1CCC(N2CCN(S(C)(=O)=O)CC2)CC1
In short: (§1)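 Tumour cell lines were seeded in log phase at 250–500 cells per well into 384-well plates. Starting 24 hours later, inhibitors were present continuously for five days at 0.5, 1, 5, 10, 50, 100, 500 and 1000 nM. Surviving fraction, from CellTiter-Glo luminescence, is normalised to the median of DMSO-only wells. Three screens per line were required, with replicate Pearson r >0.7 and median Z' >0.3 for a line to be kept.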

NILOTINIB = compound: Cc1cn(-c2cc(NC(=O)c3ccc(C)c(Nc4nccc(-c5cccnc5)n4)c3)cc(C(F)(F)F)c2)cn1 [NILOTINIB]
In short: as §1

CABOZANTINIB = compound: COc1cc2nccc(Oc3ccc(NC(=O)C4(C(=O)Nc5ccc(F)cc5)CC4)cc3)c2cc1OC [CABOZANTINIB]
In short: as §1

BMN-673 = compound: Cn1ncnc1[C@H]1c2n[nH]c(=O)c3cc(F)cc(c23)N[C@@H]1c1ccc(F)cc1 [BMN-673]
In short: as §1

[2] = compound: COc1ccc(-c2cc3c(C)nc(N)nc3n([C@H]3CC[C@H](OCCO)CC3)c2=O)cn1
In short: as §1

AFIMOXIFENE = compound: CC/C(=C(\c1ccc(O)cc1)c1ccc(OCCN(C)C)cc1)c1ccccc1 [AFIMOXIFENE]
In short: as §1

BEZ-235 = compound: Cn1c(=O)n(-c2ccc(C(C)(C)C#N)cc2)c2c3cc(-c4cnc5ccccc5c4)ccc3ncc21 [BEZ-235]
In short: as §1

BLEOMYCIN = compound: Cc1c(N)nc([C@H](CC(N)=O)NC[C@H](N)C(N)=O)nc1C(=O)N[C@H](C(=O)N[C@H](C)[C@@H](O)[C@H](C)C(=O)N[C@H](C(=O)NCCc1nc(-c2nc(C(=O)NCCC[S+](C)C)cs2)cs1)[C@@H](C)O)[C@@H](OC1OC(CO)C(O)C(O)C1OC1OC(CO)C(O)C(OC(N)=O)C1O)c1cnc[nH]1 [BLEOMYCIN]
In short: as §1

IMATINIB = compound: Cc1ccc(NC(=O)c2ccc(CN3CCN(C)CC3)cc2)cc1Nc1nccc(-c2cccnc2)n1 [IMATINIB]
In short: as §1

VORINOSTAT = compound: O=C(CCCCCCC(=O)Nc1ccccc1)NO [VORINOSTAT]
In short: as §1

MK-1775 = compound: C=CCn1c(=O)c2cnc(Nc3ccc(N4CCN(C)CC4)cc3)nc2n1-c1cccc(C(C)(C)O)n1 [MK-1775]
In short: as §1

[3] = compound: C[C@@H]1CN(CC(=O)Nc2ccc3c(c2)Cc2cccc(-c4cc(=O)cc(N5CCOCC5)o4)c2S3)C[C@H](C)O1
In short: as §1

LENVATINIB = compound: COc1cc2nccc(Oc3ccc(NC(=O)NC4CC4)c(Cl)c3)c2cc1C(N)=O [LENVATINIB]
In short: as §1

[4] = compound: C[C@H](CN(C)C)Oc1nc(Nc2cc3cccc(Cl)c3cn2)cnc1C#N
In short: as §1

HS57T BREAST
surviving fraction ([1]; 0.5 nM): 0.949 ± 0.082 | surviving fraction ([1]; 1 nM): 1.01 ± 0.063 | surviving fraction ([1]; 5 nM): 1.05 ± 0.021 | surviving fraction ([1]; 10 nM): 1.05 ± 0.018 | surviving fraction ([1]; 50 nM): 1.02 ± 0.052 | surviving fraction ([1]; 100 nM): 1.06 ± 0.085 | surviving fraction ([1]; 500 nM): 0.992 ± 0.036 | surviving fraction ([1]; 1000 nM): 0.945 ± 0.024 | surviving fraction (NILOTINIB; 0.5 nM): 1.02 ± 0.12 | surviving fraction (NILOTINIB; 1 nM): 1.05 ± 0.04 | surviving fraction (NILOTINIB; 5 nM): 1.05 ± 0.066 | surviving fraction (NILOTINIB; 10 nM): 1.06 ± 0.015 | surviving fraction (NILOTINIB; 50 nM): 0.99 ± 0.038 | surviving fraction (NILOTINIB; 100 nM): 1.08 ± 0.11 | surviving fraction (NILOTINIB; 500 nM): 0.983 ± 0.03 | surviving fraction (NILOTINIB; 1000 nM): 0.967 ± 0.064 | surviving fraction (CABOZANTINIB; 0.5 nM): 0.884 ± 0.062 | surviving fraction (CABOZANTINIB; 1 nM): 0.87 ± 0.07 | surviving fraction (CABOZANTINIB; 5 nM): 0.961 ± 0.024 | surviving fraction (CABOZANTINIB; 10 nM): 0.983 ± 0.04 | surviving fraction (CABOZANTINIB; 50 nM): 1.01 ± 0.037 | surviving fraction (CABOZANTINIB; 100 nM): 0.972 ± 0.078 | surviving fraction (CABOZANTINIB; 500 nM): 0.894 ± 0.066 | surviving fraction (CABOZANTINIB; 1000 nM): 0.888 ± 0.034 | surviving fraction (BMN-673; 0.5 nM): 1.04 ± 0.03 | surviving fraction (BMN-673; 1 nM): 0.984 ± 0.037 | surviving fraction (BMN-673; 5 nM): 1.04 ± 0.076 | surviving fraction (BMN-673; 10 nM): 1.03 ± 0.076 | surviving fraction (BMN-673; 50 nM): 0.969 ± 0.084 | surviving fraction (BMN-673; 100 nM): 0.82 ± 0.074 | surviving fraction (BMN-673; 500 nM): 0.619 ± 0.057 | surviving fraction (BMN-673; 1000 nM): 0.513 ± 0.04 | surviving fraction ([2]; 0.5 nM): 0.946 ± 0.059 | surviving fraction ([2]; 1 nM): 1.01 ± 0.07 | surviving fraction ([2]; 5 nM): 0.959 ± 0.026 | surviving fraction ([2]; 10 nM): 0.939 ± 0.033 | surviving fraction ([2]; 50 nM): 0.6 ± 0.023 | surviving fraction ([2]; 100 nM): 0.429 ± 0.034 | surviving fraction ([2]; 500 nM): 0.148 ± 0.004 | surviving fraction ([2]; 1000 nM): 0.117 ± 0.0076 | surviving fraction (AFIMOXIFENE; 0.5 nM): 1.04 ± 0.086 | surviving fraction (AFIMOXIFENE; 1 nM): 1.05 ± 0.088 | surviving fraction (AFIMOXIFENE; 5 nM): 1.12 ± 0.062 | surviving fraction (AFIMOXIFENE; 10 nM): 1.156 ± 0.011 | surviving fraction (AFIMOXIFENE; 50 nM): 1.12 ± 0.071 | surviving fraction (AFIMOXIFENE; 100 nM): 1.19 ± 0.044 | surviving fraction (AFIMOXIFENE; 500 nM): 1.09 ± 0.038 | surviving fraction (AFIMOXIFENE; 1000 nM): 1.08 ± 0.057 | surviving fraction (BEZ-235; 0.5 nM): 1.08 ± 0.039 | surviving fraction (BEZ-235; 1 nM): 1.03 ± 0.033 | surviving fraction (BEZ-235; 5 nM): 0.916 ± 0.027 | surviving fraction (BEZ-235; 10 nM): 0.826 ± 0.016 | surviving fraction (BEZ-235; 50 nM): 0.335 ± 0.021 | surviving fraction (BEZ-235; 100 nM): 0.258 ± 0.0071 | surviving fraction (BEZ-235; 500 nM): 0.186 ± 0.009 | surviving fraction (BEZ-235; 1000 nM): 0.181 ± 0.011 | surviving fraction (BLEOMYCIN; 0.5 nM): 0.868 ± 0.026 | surviving fraction (BLEOMYCIN; 1 nM): 0.91 ± 0.11 | surviving fraction (BLEOMYCIN; 5 nM): 0.9263 ± 0.0091 | surviving fraction (BLEOMYCIN; 10 nM): 0.918 ± 0.057 | surviving fraction (BLEOMYCIN; 50 nM): 0.842 ± 0.032 | surviving fraction (BLEOMYCIN; 100 nM): 0.723 ± 0.034 | surviving fraction (BLEOMYCIN; 500 nM): 0.36 ± 0.041 | surviving fraction (BLEOMYCIN; 1000 nM): 0.225 ± 0.0065 | surviving fraction (IMATINIB; 1 nM): 1 ± 0.062 | surviving fraction (IMATINIB; 5 nM): 1.14 ± 0.016 | surviving fraction (IMATINIB; 10 nM): 1.14 ± 0.024 | surviving fraction (IMATINIB; 50 nM): 1.17 ± 0.069 | surviving fraction (IMATINIB; 100 nM): 1.09 ± 0.056 | surviving fraction (IMATINIB; 500 nM): 1.04 ± 0.034 | surviving fraction (IMATINIB; 1000 nM): 1.01 ± 0.093 | surviving fraction (VORINOSTAT; 0.5 nM): 0.935 ± 0.066 | surviving fraction (VORINOSTAT; 1 nM): 0.992 ± 0.038 | surviving fraction (VORINOSTAT; 5 nM): 1.01 ± 0.073 | surviving fraction (VORINOSTAT; 10 nM): 1.071 ± 0.009 | surviving fraction (VORINOSTAT; 50 nM): 1.04 ± 0.052 | surviving fraction (VORINOSTAT; 100 nM): 0.995 ± 0.056 | surviving fraction (VORINOSTAT; 500 nM): 0.804 ± 0.049 | surviving fraction (VORINOSTAT; 1000 nM): 0.475 ± 0.026 | surviving fraction (MK-1775; 0.5 nM): 0.969 ± 0.04 | surviving fraction (MK-1775; 1 nM): 1.04 ± 0.017 | surviving fraction (MK-1775; 5 nM): 1.06 ± 0.06 | surviving fraction (MK-1775; 10 nM): 0.963 ± 0.029 | surviving fraction (MK-1775; 50 nM): 0.597 ± 0.018 | surviving fraction (MK-1775; 100 nM): 0.336 ± 0.041 | surviving fraction (MK-1775; 500 nM): 0.134 ± 0.0042 | surviving fraction (MK-1775; 1000 nM): 0.098 ± 0.011 | surviving fraction ([3]; 0.5 nM): 1.1 ± 0.058 | surviving fraction ([3]; 1 nM): 1.05 ± 0.055 | surviving fraction ([3]; 5 nM): 1.16 ± 0.017 | surviving fraction ([3]; 10 nM): 1.1 ± 0.03 | surviving fraction ([3]; 50 nM): 1.08 ± 0.042 | surviving fraction ([3]; 100 nM): 1.08 ± 0.084 | surviving fraction ([3]; 500 nM): 0.945 ± 0.069 | surviving fraction ([3]; 1000 nM): 0.87 ± 0.041 | surviving fraction (LENVATINIB; 0.5 nM): 1.04 ± 0.027 | surviving fraction (LENVATINIB; 1 nM): 1.01 ± 0.085 | surviving fraction (LENVATINIB; 5 nM): 1.084 ± 0.0086 | surviving fraction (LENVATINIB; 10 nM): 1.14 ± 0.049 | surviving fraction (LENVATINIB; 50 nM): 1.1 ± 0.042 | surviving fraction (LENVATINIB; 100 nM): 1.09 ± 0.064 | surviving fraction (LENVATINIB; 500 nM): 0.831 ± 0.029 | surviving fraction (LENVATINIB; 1000 nM): 0.74 ± 0.023 | surviving fraction ([4]; 0.5 nM): 0.943 ± 0.054 | surviving fraction ([4]; 1 nM): 0.933 ± 0.048 | surviving fraction ([4]; 5 nM): 1.04 ± 0.039 | surviving fraction ([4]; 10 nM): 1.06 ± 0.041 | surviving fraction ([4]; 50 nM): 1.03 ± 0.025 | surviving fraction ([4]; 100 nM): 0.929 ± 0.057 | surviving fraction ([4]; 500 nM): 0.119 ± 0.0095 | surviving fraction ([4]; 1000 nM): 0.0913 ± 0.011
